Data reported in patent publication US11578056B2, “Solid forms comprising (S)-2-(2,6-dioxopiperidin-3-yl)-4-((2-fluoro-4-((3-morpholinoazetidin-1-yl)methyl)benzyl)amino)isoindoline-1,3-dione and salts thereof, and compositions comprising and methods of using the same” (Celgene Corporation, priority 2019, dated 2023).

Tests used:
Assay in all cases: Hematological cell line viability/apoptosis flow cytometry assay
Assay type in all cases: cell-based
[1] = tested on: SU-DHL-8 cell line; details: SU-DHL-8 (DLBCL GCB); 120 h
Summary of the method: (§1)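 384-well format; serial dilutions 0.00015–10 μM, DMSO 0.1% v/v, 5 days. Annexin V/DRAQ7 flow readout. Viability normalized to DMSO → IC50, Emax, AUC; apoptosis (early + late) vs DMSO → EC50, Ymax, AUC.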

[2] = tested on: SU-DHL-1 cell line; details: SU-DHL-1 (DLBCL); 120 h
Summary of the method: as §1

[3] = tested on: HG3 cell line; details: HG3 (CLL), 120 h
Summary of the method: as §1

[4] = tested on: WILL-2 cell line; details: WILL-2 (DLBCL), 120 h
Summary of the method: as §1

[5] = tested on: SU-DHL-5 cell line; details: SU-DHL-5 (DLBCL); 120 h
Summary of the method: as §1

[6] = tested on: WA-C3-CD5+ cell line; details: WA-C3-CD5+ (CLL), 120 h
Summary of the method: as §1

[7] = tested on: WSU-DLCL cell line; details: WSU-DLCL (DLBCL GCB), 120 h
Summary of the method: as §1

[8] = tested on: L-428 cell line; details: L-428 (HL), 120 h
Summary of the method: as §1

[9] = tested on: Toledo cell line; details: Toledo (DLBCL GCB); 120 h
Summary of the method: as §1

[10] = tested on: HuT-102 cell line; details: HuT-102 (TCL), 120 h
Summary of the method: as §1

[11] = tested on: ULA cell line; details: ULA (DLBCL), 120 h
Summary of the method: as §1

[12] = tested on: U-2904 cell line; details: U-2904 (DLBCL), 120 h
Summary of the method: as §1

[13] = tested on: L-591 cell line; details: L-591 (HL), 120 h
Summary of the method: as §1

SMILES: O=C1CC[C@H](N2C(=O)c3cccc(NCc4ccc(CN5CC(N6CCOCC6)C5)cc4F)c3C2=O)C(=O)N1 [Compound 1, (S)-2-(2,6-dioxopiperidin-3-yl)-4-((2-fluoro-4-((3-morpholinoazetidin-1-yl)methyl)benzyl)amino)isoindoline-1,3-dione]
- % Viable Cells AUC [1]: 119.5
- % Viable Cells Emax [1]: 2.081%
- Apoptosis AUC [1]: 363.2
- Apoptosis Ymax [1]: 85.44%
- % Viable Cells AUC [2]: 31.14
- % Viable Cells Emax [2]: 2.485%
- Apoptosis AUC [2]: 690.1
- Apoptosis Ymax [2]: 73.83%
- % Viable Cells AUC [3]: 676.2
- % Viable Cells Emax [3]: 59.58%
- Apoptosis AUC [3]: 131.5
- Apoptosis Ymax [3]: 14.28%
- EC50 ([3]; HG-3): 111 nM
- IC50 ([3]; HG-3, read-out: % Viable Cells IC50): > 10000 nM
- % Viable Cells AUC [4]: 17.1
- % Viable Cells Emax [4]: 0.03115%
- Apoptosis AUC [4]: 916.9
- Apoptosis Ymax [4]: 99.43%
- EC50 [4]: 89.7 nM
- IC50 ([4]; read-out: % Viable Cells IC50): 2.36 nM
- % Viable Cells AUC [5]: 1.873
- % Viable Cells Emax [5]: 0.1398%
- Apoptosis AUC [5]: 934.1
- Apoptosis Ymax [5]: 95.23%
- % Viable Cells AUC [6]: 474.8
- % Viable Cells Emax [6]: 44.2%
- Apoptosis AUC [6]: 162.9
- Apoptosis Ymax [6]: 17.47%
- EC50 [6]: 52.4 nM
- IC50 ([6]; read-out: % Viable Cells IC50): 530 nM
- % Viable Cells AUC [7]: 341.9
- % Viable Cells Emax [7]: 27.83%
- Apoptosis AUC [7]: 565.1
- Apoptosis Ymax [7]: 59.91%
- EC50 [7]: 18 nM
- IC50 ([7]; read-out: % Viable Cells IC50): 142 nM
- EC50 ([8]; Homo sapiens): 64500 nM
- IC50 ([8]; Homo sapiens, read-out: % Viable Cells IC50): 252 nM
- % Viable Cells AUC [8]: 450.4
- % Viable Cells Emax [8]: 47.3%
- Apoptosis AUC [8]: 63.35
- Apoptosis Ymax [8]: 27.50%
- % Viable Cells AUC [9]: 112.3
- % Viable Cells Emax [9]: 8.56%
- Apoptosis AUC [9]: 231.4
- Apoptosis Ymax [9]: 27.5%
- % Viable Cells AUC [10]: 395.4
- % Viable Cells Emax [10]: 36.34%
- Apoptosis AUC [10]: 42.75
- Apoptosis Ymax [10]: 18.50%
- EC50 [10]: 23400 nM
- IC50 ([10]; read-out: % Viable Cells IC50): 6.5 nM
- % Viable Cells AUC [11]: 0.5518
- % Viable Cells Emax [11]: 0.02523%
- Apoptosis AUC [11]: 995.3
- Apoptosis Ymax [11]: 99.76%
- EC50 [11]: 1.79 nM
- IC50 ([11]; read-out: % Viable Cells IC50): 0.99 nM
- % Viable Cells AUC [12]: 334.1
- % Viable Cells Emax [12]: 7.609%
- Apoptosis AUC [12]: 456.1
- Apoptosis Ymax [12]: 77.39%
- EC50 [12]: 3290 nM
- IC50 ([12]; read-out: % Viable Cells IC50): 201 nM
- % Viable Cells AUC [13]: 334.2
- % Viable Cells Emax [13]: 34.6%
- Apoptosis AUC [13]: 45.59
- Apoptosis Ymax [13]: 20.0%
- EC50 [13]: 1520 nM
- IC50 ([13]; read-out: % Viable Cells IC50): 0.3 nM
